Measurements taken from US20230256039A1, “COMPOSITIONS AND METHODS TO INCREASE PRODUCTION OF HYDROXYTYROSOL” (priority 2022, published 2023).

Experiments:
[1] = test system: Lactobacillus pentosus strain OL79; conditions: MIC cutoff values for Lactobacillus pentosus strain OL79; cited from earlier work
[2] = test system: Lactobacillus pentosus strain OL79; test: Minimum inhibitory concentration (MIC) antibiotic susceptibility of strain OL79; format: cell-based; conditions: MIC of antibiotic against strain OL79 versus EFSA cutoff

Compound | EFSA Break Point [1] [mg/L] | Susceptibility [2]
CC1(C)S[C@@H]2[C@H](NC(=O)[C@H](N)c3ccccc3)C(=O)N2[C@H]1C(=O)O [Ampicillin] | 2 | sensitive
Gentamycin | 16 | sensitive
CC[C@H]1OC(=O)[C@H](C)[C@@H](O[C@H]2C[C@@](C)(OC)[C@@H](O)[C@H](C)O2)[C@H](C)[C@@H](O[C@@H]2O[C@H](C)C[C@H](N(C)C)[C@H]2O)[C@](C)(O)C[C@@H](C)C(=O)[C@H](C)[C@@H](O)[C@]1(C)O [Erythromycin] | 1 | sensitive
O=C(N[C@H](CO)[C@H](O)c1ccc([N+](=O)[O-])cc1)C(Cl)Cl [Chloramphenicol] | 8 | sensitive
